Data taken from US6710044B2, “Technical field” (NeuroSearch A/S, priority 1996, dated 2004).

Columns and labels:
[1] = biological target: benzodiazepine receptor sites (GABAA receptor complex); assay: In vitro inhibition of 3H-flunitrazepam (3H-FNM) binding, cerebral cortex membranes; settings: inhibition of specific binding of 3H-FNM (1 nM), rat cerebral cortex membranes, 40 min at 2° C.
Protocol: The affinity of various potential ligands for the benzodiazepine receptor sites can thus be evaluated by estimating the ability of test compounds to displace ^3H-flunitrazepam.
Tissue Preparation: Preparations are performed at 0-4° C. unless otherwise indicated.
Cerebral cortex from male Wistar rats (150-200 g) is homogenized for 5-10 sec in 20 ml Tris-HCl (30 mM, pH 7.4) using an Ultra-Turrax homogenizer. The suspension is centrifuged at 27,000×g for 15 min, and the pellet is washed three times with buffer (centrifuged at 27,000×g for 10 min). The washed pellet is homogenized in 20 ml of buffer and incubated on a water bath (37° C.) for 30 min to remove endogenous GABA and then centrifuged for 10 min at 27,000×g. The pellet is then homogenized in buffer and centrifuged for 10 min at 27,000×g. The final pellet is resuspended in 30 ml buffer and the preparation is frozen and stored at −20° C.
Assay: The membrane preparation is thawed and centrifuged at 2° C. for 10 min at 27,000×g. The pellet is washed twice with 20 ml 50 mM Tris-citrate, pH 7.1 using an Ultra-Turrax homogenizer and centrifuged for 10 min at 27,000×g. The final pellet is resuspended in 50 mM Tris-citrate, pH 7.1 (500 ml buffer per g of original tissue), and then used for binding assays. Aliquots of 0.5 ml tissue are added to 25 μl of test solution and 25 μl of ^3H-FNM (1 nM, final concentration), mixed and incubated for 40 min at 2° C. Non-specific binding is determined using clonazepam (1 μM, final concentration). After incubation the samples are added 5 ml of ice-cold buffer and poured directly onto Whatman GF/C glass fibre filters under suction and immediately washed with 5 ml ice-cold buffer. The amount of radioactivity on the filters is determined by conventional liquid scintillation counting. Specific binding is total binding minus non-specific binding.
The test value is calculated as the IC50 (the concentration (nM) of the test substance which inhibits the specific binding of ^3H—FNM by 50%).

SMILES | melting point | IC50 [1]
N#Cc1ccc2c(c1)ncn2-c1cccc(N2CCCC2)c1 [compound 3a2, 5-Cyano-1-(3-(1-pyrrolidinyl)phenyl)benzimidazole] | 171 to 172 °C | 41 nM
CN1CCCC(c2cccc(-n3cnc4cc(C=NO)ccc43)c2)C1 (stereo not drawn) [compound 3b4, 5-Formyl-1-(3-(1-methyl-3-piperidinyl)phenyl)benzimidazole oxime] | 214 to 218 °C | 4 nM
CCON=C(C)c1ccc2c(c1)ncn2-c1cccc(C2CCCN(C)C2)c1.Cl (stereo not drawn) [compound 3f7, 5-acetyl-1-(3-(1-methylpiperidin-3-yl)phenyl)benzimidazole O-ethyl oxime hydrochloride] | 112 to 114 °C | 18 nM
OCCN1CCN(c2cccc(-n3cnc4cc(-c5ccoc5)ccc43)c2)CC1 [compound 3i3, 5-(3-Furanyl)-1-(3-(4-(2-hydroxyethyl)piperazin-1-yl)phenyl)benzimidazole] | 137 to 140 °C | 5 nM
CCOC(=O)c1ccc2c(c1)ncn2-c1cccc(N2CCN(CC(=O)OC)CC2)c1.Cl [compound 4a5, 5-(Ethoxycarbonyl)-1-(3-(4-(methoxycarbonylmethyl)piperazin-1-yl)phenyl)-benzimidazole, hydrochloride] | 185 to 186 °C | 50 nM
CN1CCCC(c2cccc(-n3cnc4cc(C(=O)OCc5cccnc5)ccc43)c2)C1 (stereo not drawn) [compound 4h, 5-(3-Picolyloxycarbonyl)-1-(3-(1-methylpiperidin-3-yl)phenyl)benzimidazole] |  | 80 nM
COC(=O)Cc1ccc2c(c1)ncn2-c1cccc(N2CCN(C)CC2)c1.Cl [compound 4l1, 5-(Methoxycarbonylmethyl)-1-(3-(4-methylpiperazin-1-yl)phenyl)benzimidazole, hydrochloride] | 140 to 142 °C | 25 nM
COC(=O)CON=C(C)c1ccc2c(c1)ncn2-c1cccc(N2CCN(CCO)CC2)c1 [compound 5c1, 5-Acetyl-1-(3-(4-(2-hydroxyethyl)piperazin-1-yl)phenyl)benzimidazole O-(methoxy-carbonylmethyl) oxime] | 117 to 119 °C | 19 nM
CCOC(=O)c1cccc(-n2cnc3cc(-c4ccno4)ccc32)c1 [compound 6a2, 5-(5-Isoxazolyl)-1-(3-ethoxycarbonyl)phenyl benzimidazole] | 156 to 157 °C | 3 nM
O=C(OCc1ccccn1)c1cccc(-n2cnc3cc(-c4ccccc4)ccc32)c1 [compound 6b3, 5-Phenyl-1-(3-(2-picolyloxycarbonyl)phenyl)benzimidazole] | 149 to 150 °C | 8 nM
CCOC(=O)C(=CN1CCN(c2cccc(-n3cnc4cc(-c5ccoc5)ccc43)c2)CC1)C(=O)OCC [compound 6c6, 5-(3-Furanyl)-1-(3-(4-(2,2-bis(ethoxycarbonyl)ethenyl)piperazin-1-yl)phenyl)-benzimidazole] | 97 to 102 °C | 7 nM
